Experiment [1] has as its target T1, zebrafish Slc4a1b (zSlc4a1b) (Danio rerio, UniProt D1FTM8).
T1 construct: cRNA expressed in Xenopus laevis oocytes
T1 sequence (D1FTM8 61-851): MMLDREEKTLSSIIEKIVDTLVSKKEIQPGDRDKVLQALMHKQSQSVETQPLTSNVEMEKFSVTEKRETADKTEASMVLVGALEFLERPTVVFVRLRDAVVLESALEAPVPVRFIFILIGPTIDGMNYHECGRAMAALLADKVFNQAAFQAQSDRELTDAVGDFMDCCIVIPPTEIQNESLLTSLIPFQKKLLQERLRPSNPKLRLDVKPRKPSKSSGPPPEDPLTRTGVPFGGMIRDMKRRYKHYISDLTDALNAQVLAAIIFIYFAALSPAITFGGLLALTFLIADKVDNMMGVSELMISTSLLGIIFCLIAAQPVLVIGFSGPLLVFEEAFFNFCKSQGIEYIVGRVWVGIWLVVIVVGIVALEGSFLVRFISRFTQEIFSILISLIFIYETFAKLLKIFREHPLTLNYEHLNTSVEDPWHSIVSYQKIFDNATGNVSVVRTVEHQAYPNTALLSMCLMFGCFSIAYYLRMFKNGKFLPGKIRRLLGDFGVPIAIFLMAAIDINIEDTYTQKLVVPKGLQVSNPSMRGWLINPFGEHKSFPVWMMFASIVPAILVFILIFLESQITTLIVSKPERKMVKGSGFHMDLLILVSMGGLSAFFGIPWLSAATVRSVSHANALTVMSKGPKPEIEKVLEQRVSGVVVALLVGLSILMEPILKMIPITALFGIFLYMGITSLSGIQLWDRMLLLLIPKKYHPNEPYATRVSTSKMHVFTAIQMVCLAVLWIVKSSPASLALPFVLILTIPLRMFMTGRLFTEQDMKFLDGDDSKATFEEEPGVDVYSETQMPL
Briefly: […]- influx in Xenopus oocytes. It is filed as cell-based. The note with it: 200 µM DIDS; inhibitor; bath Cl- 103.6 mM, pH 7.4; disodium salt.

For a further experiment, the target named is T2, human SLC4A1 (hSlc4a1) (Homo sapiens, UniProt P02730).
T2 construct: expressed in Xenopus laevis oocytes
T2 sequence (P02730 1-911): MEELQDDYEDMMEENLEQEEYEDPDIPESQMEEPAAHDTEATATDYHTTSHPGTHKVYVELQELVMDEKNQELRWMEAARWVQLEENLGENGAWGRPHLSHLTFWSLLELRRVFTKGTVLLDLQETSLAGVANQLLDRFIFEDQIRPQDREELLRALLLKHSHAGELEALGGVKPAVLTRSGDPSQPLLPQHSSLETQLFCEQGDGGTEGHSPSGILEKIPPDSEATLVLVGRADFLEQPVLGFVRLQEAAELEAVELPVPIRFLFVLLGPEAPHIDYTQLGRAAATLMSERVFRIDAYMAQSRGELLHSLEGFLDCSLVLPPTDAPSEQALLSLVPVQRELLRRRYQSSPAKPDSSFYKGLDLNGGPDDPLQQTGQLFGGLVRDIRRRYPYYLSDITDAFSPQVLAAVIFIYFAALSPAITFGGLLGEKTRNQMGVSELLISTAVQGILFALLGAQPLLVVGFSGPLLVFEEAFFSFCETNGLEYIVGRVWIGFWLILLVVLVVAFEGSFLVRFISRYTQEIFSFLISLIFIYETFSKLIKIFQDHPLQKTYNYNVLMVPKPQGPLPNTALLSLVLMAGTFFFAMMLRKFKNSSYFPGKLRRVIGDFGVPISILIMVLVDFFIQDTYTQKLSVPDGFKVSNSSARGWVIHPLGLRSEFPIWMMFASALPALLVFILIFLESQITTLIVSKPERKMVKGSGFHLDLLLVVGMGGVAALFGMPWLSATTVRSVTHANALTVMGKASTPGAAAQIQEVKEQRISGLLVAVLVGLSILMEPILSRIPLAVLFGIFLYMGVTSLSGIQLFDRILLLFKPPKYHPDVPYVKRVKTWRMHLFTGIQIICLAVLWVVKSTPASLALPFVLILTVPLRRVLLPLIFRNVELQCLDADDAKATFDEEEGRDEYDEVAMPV
Briefly: […]- influx in Xenopus oocytes. The class given is cell-based. The note with it: 200 µM DIDS; inhibitor; bath Cl- 103.6 mM, pH 7.4; disodium salt.

Turning to `O=S(=O)(O)c1cc(N=C=S)ccc1/C=C/c1ccc(N=C=S)cc1S(=O)(=O)O` [DIDS, 4,4′-diisothiocyano-2,2′-stilbenedisulfonic acid], the “36Cl- influx in Xenopus oocytes” value in experiment [1] was “zebrafish Slc4a1b and by human SLC4A1 was abolished by treatment with the disulfonic stilbene DIDS”; on human SLC4A1 (hSlc4a1), “zebrafish Slc4a1b and by human SLC4A1 was abolished by treatment with the disulfonic stilbene DIDS”.

The values are drawn from article PMC3469417, “Loss of Slc4a1b Chloride/Bicarbonate Exchanger Function Protects Mechanosensory Hair Cells from Aminoglycoside Damage in the Zebrafish Mutant persephone” (PLoS Genetics, 2012).
